This note sets out measurements from patent US20040259934A1, “Inhibiting Coronaviridae viral replication and treating Coronaviridae viral infection with nucleoside compounds” (priority 2003, published 2004).

As a reminder, the EC50 is the concentration giving half of the maximal effect. Read a low EC50 as a more potent agent.

The test system of assay [1] is Human coronavirus OC43. The assay can be described thus: Neutral red uptake assay against a coronavirus. The class given is cell-based. As to conditions: Betacoronavirus 1, OC43 / SC1, BSC-1. As for the experimental part:
(§1) The assays employed to measure activity against coronavirus are described below (wherein CPE=cytopathic effect; FBS=fetal bovine serum; MEM=minimal essential medium; MOI=multiplicity of infection; and NR=neutral red):
(§2) Human coronavirus OC43 was obtained from the American Type Culture Collection (ATCC, Manassas, Va., USA). This virus was originally isolated from the tracheal washings of a person with cold-like symptoms.
(§3) B-SC-1 cells propagated from adult African green kidney cells were grown in MEM supplemented with 0.1% NaHCO3 and 10% FBS. When performing antiviral assays, serum was reduced to 2% and 50 μg/mL gentamicin was added to the medium.
After performing the CPE inhibition assay above, an additional cytopathic detection method was used, in which medium was removed from each well of a plate scored for CPE from a CPE inhibition assay, 0.034% NR was added to each well of the plate and the plate incubated for 2 hr at 37° C. in the dark. The NR solution was then removed from the wells. After rinsing and aspirating to dryness, the remaining dye was extracted for 30 min at room temperature in the dark from the cells using absolute ethanol buffered with Sörenson citrate buffer. […] Absorbances at 540 nm and 450 nm were read with a microplate reader (Bio-Tek EL 1309; Bio-Tek Instruments, Inc., Winooski, Vt.). Absorbance values were expressed as percentages of untreated controls and EC50 and IC50 values were calculated by regression analysis.

The test system of assay [2] is Human coronavirus OC43. The assay can be described thus: Cytopathic effect (CPE) inhibition assay against a coronavirus. The class given is cell-based. As to conditions: Betacoronavirus 1, OC43 / SC1, BSC-1, 144 h. On the procedure: as §1, §2, §3
Each compound was diluted in MEM using a four log dilution series (i.e., 100, 10, 1.0, 0.1 μg/ml) and 100 μL added to the appropriate wells of a 96 well cell culture plate with confluent cells (see plate format below). The coronavirus was diluted in MEM 2% FBS to an MOI=0.001 in a volume of 100 μL and added immediately to plate (usually within 5 minutes of drug addition). […] The plates were then scored for virus cytopathic effect at each dilution of compound tested. The 50% effective concentration (EC50) was calculated by regression analysis using the means of the CPE ratings at each concentration of compound.

For `C[C@@]1(O)[C@H](O)[C@@H](CO)O[C@H]1n1cnc2c(N)ncnc21` [2′-C-methyladenosine], the EC50 in the assay with Human coronavirus OC43 [1] is not above 10 µM; in the assay on Human coronavirus OC43 [2], less than 100 µM.
Take `C[C@@]1(O)[C@H](O)[C@@H](CO)O[C@H]1n1ccc2c(N)ncnc21` [Example 1, 4-Amino-7-(2-C-methyl-β-D-ribofuranosyl)-7H-pyrrolo[2,3-d]pyrimidine]: the EC50 in the assay with Human coronavirus OC43 [1] was not above 10 µM; in the assay on Human coronavirus OC43 [2], less than 100 µM.
For `C[C@@]1(O)[C@H](O)[C@@H](CO)O[C@H]1n1ccc(N)nc1=O` [2′-C-methylcytidine], in that order: not above 10 µM and less than 100 µM.
